Assay results taken from ChEMBL document CHEMBL5223128, “Biphenyl-based small molecule inhibitors: Novel cancer immunotherapeutic agents targeting PD-1/PD-L1 interaction” (Bioorg Med Chem, 2022).
pIC50, pKd: −log10 of the molar value.

Target: T1, Programmed cell death protein 1/Programmed cell death 1 ligand 1 (Homo sapiens, UniProt Q9NZQ7)
Test: Inhibition of human PD-1/PDL1 protein-protein interaction
Format: protein-complex assay

T1 sequence (Q15116 whole entry): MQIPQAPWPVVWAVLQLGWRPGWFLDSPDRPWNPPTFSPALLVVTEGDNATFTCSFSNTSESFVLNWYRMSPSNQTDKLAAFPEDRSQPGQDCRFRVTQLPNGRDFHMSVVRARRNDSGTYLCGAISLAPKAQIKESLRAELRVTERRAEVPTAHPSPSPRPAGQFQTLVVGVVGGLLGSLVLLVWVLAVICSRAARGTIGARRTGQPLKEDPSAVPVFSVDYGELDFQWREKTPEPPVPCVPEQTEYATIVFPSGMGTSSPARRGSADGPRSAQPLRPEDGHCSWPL
T1 sequence (Q9NZQ7 whole entry): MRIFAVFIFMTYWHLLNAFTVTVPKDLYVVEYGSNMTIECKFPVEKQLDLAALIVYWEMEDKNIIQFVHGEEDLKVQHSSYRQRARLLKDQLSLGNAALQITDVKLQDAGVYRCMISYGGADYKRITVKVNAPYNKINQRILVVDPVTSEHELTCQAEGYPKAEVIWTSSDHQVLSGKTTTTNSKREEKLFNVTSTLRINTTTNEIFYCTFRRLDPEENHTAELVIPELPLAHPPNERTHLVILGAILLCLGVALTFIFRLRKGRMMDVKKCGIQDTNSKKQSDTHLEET

| SMILES | pIC50 |
| --- | --- |
| COc1cc(OCc2cccc(-c3ccccc3)c2C)cc(OC)c1CCCC1CC(=O)N1 (configuration not stated) | 7.74 |

Target: T1, Programmed cell death protein 1/Programmed cell death 1 ligand 1
Test: Inhibition of human PD-1/PDL1 protein-protein interaction by luminescence proximity homogeneous assay
Format: protein-complex assay

| SMILES | pIC50 |
| --- | --- |
| Cc1c(COc2cc(OCc3ccc(OC(F)(F)F)cc3)c(N3CCCCC3C(=O)O)cc2Cl)cccc1-c1ccccc1 (configuration not stated) | 5.82 |

Target: T1, Programmed cell death protein 1/Programmed cell death 1 ligand 1
Test: Inhibition of human PD-1/PDL1 protein-protein interaction by HTRF assay
Format: protein-complex assay

| SMILES | pIC50 |
| --- | --- |
| COc1cc(OCc2cccc(-c3ccccc3)c2C)cc(OC)c1CCCC1CC(=O)N1 (configuration not stated) | 7.66 |
| N#Cc1c(NC(=O)c2ccc(CNCCO)cn2)cccc1-c1ccc2c(c1)OCCO2 | ≥ 8.00 |
| Cc1c(NC(=O)c2nc3c(s2)CNCC3)cccc1-c1ccc2c(c1)OCCO2 | ≥ 7.00 |
| Cc1c(-c2cccc(CC(N)=O)c2)cccc1-c1nc2c(s1)CNCC2 | ≥ 7.00 |
| COc1cccc(-c2cccc(NC(=O)c3nc4c(n3C)CCN(CCO)C4)c2C#N)c1F | ≥ 7.00 |
| Cc1c(-c2ccccc2)cccc1-c1nc2c(o1)CNCC2 | ≥ 7.00 |
| Cc1c(-c2ccccc2)cccc1-c1nc2c(s1)CN(C[C@H](C)O)CC2 | ≥ 7.00 |
| Cc1c(-c2ccccc2)cccc1-c1nc2c(s1)CNCC2 | ≥ 7.00 |
| Cn1cnc2c(-c3cccc(NC(=O)c4ccc(CNCCO)cn4)c3C#N)cccc21 | ≥ 8.00 |
| Cc1cc(C(=O)Nc2cccc(-c3ccccc3)c2C)ncc1CNCCO | ≥ 8.00 |
| Cc1c(-c2ccccc2)cccc1-c1nc2c(s1)CN(CCO)CC2 | ≥ 7.00 |
| Cc1c(NC(=O)c2nc3c(s2)CN(CC(=O)O)CC3)cccc1-c1ccccc1 | ≥ 7.00 |
| COc1cccc(-c2cccc(NC(=O)c3nc4c(n3C)CCNC4)c2C#N)c1F | ≥ 7.00 |
| N#CCc1cc(CNCCO)cn2nc(-c3cccc(-c4ccc5c(c4)OCCO5)c3C#N)nc12 | ≥ 7.00 |
| Cc1c(-c2ccccc2)cccc1-c1nc2c(s1)CN(CCCC(=O)O)CC2 | ≥ 7.00 |
| N#Cc1c(-c2ccc3c(c2)OCCO3)cccc1-c1nc2c(Cl)cc(CNCCO)cn2n1 | ≥ 7.00 |
| Cc1c(-c2ccccc2)cccc1-c1nc2cc(CNCCO)nc(C)n2n1 | ≥ 7.00 |
| N#Cc1c(NC(=O)c2nc3c(s2)CNCC3)cccc1-c1ccccc1F | ≥ 7.00 |
| Cc1c(Nc2nccc3cc(CNCCO)cnc23)cccc1C1=CCCCC1 | ≥ 8.00 |
| Cc1cc(C(=O)Nc2cc(F)cc(-c3ccc4c(c3)OCCO4)c2C)ncc1CNCCO | ≥ 8.00 |
| N#Cc1c(-c2ccc3c(c2)OCCO3)cccc1-c1nc2c(s1)CNCC2 | ≥ 7.00 |
| N#Cc1c(Nc2nccc3nc(CNCCO)cnc23)cccc1C1=CCCCC1 | ≥ 8.00 |
| Cc1c(-c2ccccc2)ccnc1-c1nc2c(s1)CNCC2 | ≥ 7.00 |
| Cc1c(-c2nc3c(s2)CNCC3)cccc1-c1cccc2c1cnn2C | ≥ 7.00 |

| SMILES | pIC50 |
| --- | --- |
| Cc1c(-c2ccccc2)cccc1-n1cc2c(n1)CNCC2 | ≥ 7.00 |
| N#Cc1c(NC(=O)c2ccc(CNCCO)cn2)cccc1-c1ccccc1 | ≥ 8.00 |
| Cc1c(-c2ccccc2)cccc1-c1nc2cc(CNCCO)c(OCCN3CCOCC3)cc2o1 | ≥ 8.00 |
| Cc1c(-c2ccc3c(c2)OCCO3)ccnc1-c1nc2c(s1)CNCC2 | ≥ 7.00 |
| Cc1c(-c2ccccc2)cccc1-c1nc2c(s1)CN(C)CC2 | ≥ 7.00 |
| COc1cc(OC)cc(-c2cccc(-c3nc4c(s3)CNCC4)c2C)c1 | ≥ 7.00 |
| Cc1c(Nc2nccc3c(CNCCO)ccnc23)cccc1-c1ccc2c(c1)OCCO2 | ≥ 8.00 |
| N#Cc1c(NC(=O)c2nc3c(s2)CNCC3)cccc1-c1ccccc1Cl | ≥ 7.00 |
| Cc1c(-c2ccccc2)cccc1-c1cn2nc(CNCCO)cnc2n1 | ≥ 7.00 |
| Cn1ncc2c(-c3cccc(NC(=O)c4nc5c(s4)CNCC5)c3C#N)cccc21 | ≥ 7.00 |
| COc1cc(F)cc(-c2cccc(NC(=O)c3nc4c(s3)CNCC4)c2C#N)c1 | ≥ 7.00 |
| Cc1c(-c2ccccc2)ccnc1-c1nc2c(s1)CN(C1CCC(C(=O)O)CC1)CC2 (configuration not stated) | ≥ 7.00 |
| N#Cc1c(NC(=O)c2nc3c(s2)CNCC3)cccc1C1=CCCCC1 | ≥ 7.00 |
| Cc1c(NC(=O)c2nc3c(s2)CNCC3)cccc1-c1cccc2c1cnn2C | ≥ 7.00 |
| Cc1c(-c2ccccc2)cccc1-c1nc2ccc(CNCCO)cn2n1 | ≥ 7.00 |
| COc1cccc(-c2ccnc(-c3nc4c(s3)CNCC4)c2C)c1 | ≥ 7.00 |
| Cc1c(-c2ccccc2)cccc1-c1nc2cc(CNCCO)ccc2o1 | ≥ 8.00 |
| COc1cccc(-c2cccc(NC(=O)c3cn4c(n3)CNCC4)c2C#N)c1F | ≥ 7.00 |
| Cc1cc(CNCCO)cc2nc(-c3cccc(-c4ccccc4)c3C#N)oc12 | ≥ 8.00 |
| Cn1c(C(=O)Nc2cccc(-c3ccc4c(c3)OCCO4)c2C#N)nc2c1CCNC2 | ≥ 7.00 |
| Cc1c(Nc2nccc3cc(CNCCO)cnc23)cccc1-c1ccc2c(c1)OCCO2 | ≥ 8.00 |
| Cc1c(-c2ccccc2)cccc1-c1nc2cc(CNCCO)c(OCC#N)cc2o1 | ≥ 8.00 |
| Cn1ncc2c(-c3cccc(NC(=O)c4nc5c(s4)CNCC5)c3Cl)cccc21 | ≥ 7.00 |
| CCOc1cccc(-c2cccc(-c3nc4c(s3)CNCC4)c2C)c1 | ≥ 7.00 |

| SMILES | pIC50 |
| --- | --- |
| Cc1c(C2=CCCCC2)cccc1-c1nc2c(s1)CNCC2 | ≥ 7.00 |
| Cc1c(-c2nc3cc(CNCCO)c(OCC#N)cc3o2)cccc1-c1ccccc1F | ≥ 8.00 |
| COc1cccc(-c2cccc(NC(=O)c3nc4c(s3)CNCC4)c2Cl)c1F | ≥ 7.00 |
| O=C(Nc1cccc(-c2ccccc2)c1Cl)c1nc2c(s1)CNCC2 | ≥ 7.00 |
| COc1cc(OC)c(F)c(-c2cccc(-c3nc4c(s3)CNCC4)c2C)c1F | ≥ 7.00 |
| COc1cccc(-c2cccc(NC(=O)c3nc4c(s3)CNCC4)c2C)c1F | ≥ 7.00 |
| COc1cccc(-c2cccc(NC(=O)c3nc4c(s3)CNCC4)c2C#N)c1F | ≥ 7.00 |
| Cc1c(-c2cccc(C(N)=O)c2)cccc1-c1nc2c(s1)CNCC2 | ≥ 7.00 |
| Cc1c(NC(=O)c2nc3c(s2)CN(CCO)CC3)cccc1-c1ccccc1 | ≥ 7.00 |
| N#Cc1c(-c2ccc3c(c2)OCCO3)cccc1-c1nc2c(C#N)cc(CNCCO)cn2n1 | ≥ 7.00 |
| N#Cc1c(Nc2nccc3cc(CNCCO)cnc23)cccc1-c1ccc2c(c1)OCCO2 | ≥ 8.00 |
| Cc1c(-c2ccccc2)cccc1-c1nc2cc(CNCCO)cc(C)c2o1 | ≥ 8.00 |
| Cc1c(Nc2nccc3c(CN4CCCCC4C(=O)O)ccnc23)cccc1-c1ccccc1 (configuration not stated) | ≥ 8.00 |
| Cc1c(NC(=O)c2nc3c(s2)CNCC3)cccc1-c1ccccc1 | ≥ 7.00 |
| Cc1c(-c2ccccc2)cccc1-c1nc2cc(CNCCO)c(OCc3ccccn3)cc2o1 | ≥ 8.00 |
| N#Cc1c(NC(=O)c2nc3c(s2)CNCC3)cccc1-c1ccc2c(c1)OCCO2 | ≥ 7.00 |
| N#Cc1c(Nc2nccc3cc(CNCCO)cnc23)cccc1-c1ccccc1 | ≥ 8.00 |
| N#Cc1c(NC(=O)c2ccc(CNCCO)cn2)cccc1C1=CCCCC1 | ≥ 8.00 |
| Cc1c(-c2ccccc2)cccc1-c1nc2c(CCCC#N)cc(CNCCO)cn2n1 | ≥ 7.00 |
| Cc1c(-c2ccccc2)cccc1-c1nc2c(o1)CCNC2 | ≥ 7.00 |
| Cc1c(-c2ccccc2)cccc1-c1nc2cc(CN3CCCC[C@H]3C(=O)O)c(OCC#N)cc2o1 | ≥ 8.00 |
| Cc1c(-c2ccccc2)cccc1-c1nc2cc(CNCCO)ccn2n1 | ≥ 7.00 |
| COc1cccc(-c2cccc(NC(=O)c3nc4c(s3)CNCC4)c2C#N)c1 | ≥ 7.00 |
| Cc1c(Nc2nccc3cc(CNCCO)cnc23)cccc1-c1ccccc1 | ≥ 8.00 |

| SMILES | pIC50 |
| --- | --- |
| Cc1c(-c2ccccc2)cccc1-c1nc2cc(CN3CCCC[C@H]3C(=O)O)c(OCCCC#N)cc2o1 | ≥ 8.00 |
| Cc1c(-c2ccccc2)cccc1-c1cn2cc(CNCCO)ncc2n1 | ≥ 7.00 |
| COc1c(CNCCO)cnc2c(Nc3cccc(-c4ccccc4)c3C)nccc12 | ≥ 8.00 |
| Cc1c(-c2ccccc2)cccc1-c1nc2c(CC#N)cc(CNCCO)cn2n1 | ≥ 7.00 |
| N#Cc1c(NC(=O)c2nc3c(s2)CNCC3)cccc1-c1ccccc1 | ≥ 7.00 |
| O=C(Nc1cccc(-c2ccc3c(c2)OCCO3)c1Cl)c1nc2c(s1)CNCC2 | ≥ 7.00 |
| N#Cc1c(NC(=O)c2nc3c(s2)CNCC3)cccc1-c1c(F)cccc1F | ≥ 7.00 |
| Cc1c(COc2cc(OCc3ccc(OC(F)(F)F)cc3)c(N3CCCCC3C(=O)O)cc2Cl)cccc1-c1ccccc1 (configuration not stated) | 7.25 |
| Cc1c(NC(=O)c2nc3c(s2)CNCC3)cc(F)cc1-c1ccc2c(c1)OCCO2 | ≥ 7.00 |
| Cc1cc(CNCCO)cc2nc(-c3cccc(-c4ccc5c(c4)OCCO5)c3C#N)oc12 | ≥ 8.00 |
| Cc1c(NC(=O)c2nc3c(s2)CNCC3)cccc1-c1cccc2[nH]ncc12 | ≥ 7.00 |
| N#Cc1c(NC(=O)c2nc3c(s2)CNCC3)cccc1-c1ccc2c(c1)OCC2 | ≥ 7.00 |
| COc1cc2oc(-c3cccc(-c4ccccc4)c3C)nc2cc1CNCCO | ≥ 8.00 |
| COc1cccc(-c2cccc(NC(=O)c3nc4c(n3C)CCNC4)c2C)c1F | ≥ 7.00 |
| COc1cccc(-c2cccc(-c3nc4c(s3)CNCC4)c2C)c1 | ≥ 7.00 |
| Cc1c(-c2ccccc2)cccc1-c1nc2c(Cl)cc(CNCCO)cn2n1 | ≥ 7.00 |
| Cc1c(-c2ccccc2)cccc1-c1nc2c(o1)CCN(C)C2 | ≥ 7.00 |
| Cc1c(-c2ccc3c(c2)OCCO3)cccc1-c1nc2cc(CNCCO)cc(C)c2o1 | ≥ 8.00 |
| Cc1c(-c2ccc3c(c2)OCCO3)cccc1-c1nc2cc(CN3CCCC[C@H]3C(=O)O)c(OCC#N)cc2o1 | ≥ 8.00 |
| Cn1c(C(=O)Nc2cccc(-c3ccc4c(c3)OCCO4)c2C#N)nc2c1CCN(CCO)C2 | ≥ 7.00 |
| Cc1cc(C(=O)Nc2cccc(-c3ccccc3)c2C)ncc1CN1CCCC[C@H]1C(=O)O | ≥ 8.00 |

Target: Programmed cell death 1 ligand 1 (Homo sapiens, UniProt Q9NZQ7)
Test: Binding affinity to human PDL1 assessed as dissociation constant by MST method

Sequence of Programmed cell death 1 ligand 1 (Q9NZQ7 whole entry): as above

| SMILES | pKd |
| --- | --- |
| Cc1c(-c2ccccc2)cccc1N1C(=O)c2cc(CN[C@H](C(=O)O)C(C)O)c(OCc3cccc(C#N)c3)cc2C1=O (some centres not stated) | 7.61 |

Target: Programmed cell death protein 1 (Homo sapiens, UniProt Q15116)
Test: Binding affinity to human PD-1 assessed as dissociation constant by SPR assay

Sequence of Programmed cell death protein 1 (Q15116 whole entry): as the sequence (Q15116 whole entry) above

| SMILES | pKd |
| --- | --- |
| O=C(O)[C@@H](CO)NCc1cc(Cl)c(OCc2cccc(-c3ccccc3)c2Br)cc1OCc1ccc2nonc2c1 | 8.48 |
